This series can be described thus: Human HepG2 cell viability assay in 384 well format. It is filed as toxicity, cell-based. The arrangement: dose 125 nL, time 70.5 hour; concentration not given beside the values. As to conditions: HepG2 cells, read-out: Inhibition.
Regarding `Cc1cc(C)n(Cc2ccc(-c3noc(C(=O)NCCCO)n3)cc2)n1`, the cytotoxicity at 70.5 h is -21.4%.
Regarding `Cc1csc(C2CCCCN2C(=O)c2cc(C)n(C)n2)n1` (stereo not given), the cytotoxicity at 70.5 h turned out to be 25.5%.
`COCc1csc(NC(=O)NCc2ccsc2)n1`: the cytotoxicity at 70.5 h is -4.84%.
With `Cn1nc(C2CNCCO2)cc1CCOc1ccc(C(F)(F)F)cc1` (stereo not given), the cytotoxicity at 70.5 h was -1.52%.
For the compound `CC(C)(C)NC(=O)COc1ccc(CNCCOc2ccccn2)cc1`, the cytotoxicity at 70.5 h is -2.01%.
With `COc1ccc(-c2nnc(SC(C)C(=O)NC3CC3)[nH]2)c(OC)c1` (stereo not given), the cytotoxicity at 70.5 h was 30.9%.
For `Cn1cc(CN2C[C@@H]3COC[C@]3(CNC(=O)c3ccco3)C2)cn1`, the cytotoxicity at 70.5 h was -10.1%.
For the compound `Cn1cc(CC(=O)N2CCCC(n3cncn3)C2)cn1` (stereo not given), the cytotoxicity at 70.5 h is -3.54%.
For `CC1CN(C(=O)c2cc(=O)[nH]c3ccc(F)cc23)CCO1` (stereo not given), the cytotoxicity at 70.5 h amounted to 19.1%.
`Cn1nccc1CNC(=O)NC1CCN(c2ncccc2Cl)C1` (stereo not given): the cytotoxicity at 70.5 h is -0.776%.
`Cc1nn(C)c(C)c1-c1cnc(C2CCCN(C)C2)cn1` (stereo not given): the cytotoxicity at 70.5 h is -7.8%.
With `CCc1cc(NCCCOC2CCN(C)CC2)ncn1`, the cytotoxicity at 70.5 h is -15.3%.
On to `CC(C)c1noc(CNc2ccc(OC(F)F)cc2OC(F)F)n1`, for which the cytotoxicity at 70.5 h worked out at 8.88%.
`CC(C)(C)C(=O)NCCC1CN(Cc2ccccc2F)CCO1` (stereo not given): the cytotoxicity at 70.5 h is -9.52%.
Then `Cc1ncsc1CCC(=O)NC1CCN(Cc2cccs2)CC1`, with -11.5%.
Turning to `Cc1nc(CN(C)C(=O)C2CC(=O)N(c3cccc(O)c3)C2)cs1` (stereo not given), the cytotoxicity at 70.5 h is -2.8%.
In the case of `Cc1cc(C)n(-c2ccc(CNCc3ccc(C)o3)cn2)n1`, the cytotoxicity at 70.5 h was -7.08%.
For `Cc1nccn1CCCn1c(=O)cnc2ccccc21`, the cytotoxicity at 70.5 h is -10.5%.
With `Cc1noc(C2CCCCN2C(=O)C2CCN(C(C)C)CC2)n1` (stereo not given), the cytotoxicity at 70.5 h is 5.11%.
In the case of `Cc1cc(C)n(CC(C)Nc2nc(C)nc3c2CCNC3)n1` (stereo not given), the cytotoxicity at 70.5 h is -8.55%.
Consider `CNC(=O)C1(CCCc2ccccn2)CCN1Cc1coc(C)n1` (stereo not given), for which the cytotoxicity at 70.5 h was 14.6%.
As for `CN(C)CCN1CCC(CNCc2c[nH]nc2C(C)(C)C)CC1`, the cytotoxicity at 70.5 h was found to be 28.4%.
The figure for `COc1ccnc(N2CCN(C(=O)Cc3ccc(C#N)cc3)CC2)n1` is -0.995%.
As for `Cc1cc(OCC(=O)NCc2ccc(F)cc2)nnc1C`, the cytotoxicity at 70.5 h is -6.01%.
Turning to `CCc1ncnc2c1CCN(Cc1nccs1)CC2`, the cytotoxicity at 70.5 h is -7.4%.
Consider `CCN1CCCC(NC(=O)c2ccc(C)[nH]c2=O)C1` (stereo not given), for which the cytotoxicity at 70.5 h was -8.86%.
With `CC(C)c1nc(CN2CCCCC2)cs1`, the cytotoxicity at 70.5 h was -4.92%.
The figure for `Cc1cc(CNC(=O)NC(C)c2ccncc2)no1` (stereo not given) is -9.9%; for `O=C(NCCc1cccc(F)c1)C1(n2cnnn2)CCCCC1` it is -3.65%.
`CC(C)c1cc(NC(=O)c2ccc(C(=O)NC(C)(C)C)cc2)[nH]n1`: the cytotoxicity at 70.5 h is -4.05%.
With `CC1CCCN(C(=O)Nc2ccc(F)c(C(N)=O)c2)C1` (stereo not given), the cytotoxicity at 70.5 h is -1.11%.
For `Cc1ccc(C(=O)O)c(N2Cc3cnc(C(C)(C)C)nc3C2)n1`, the cytotoxicity at 70.5 h was -14.8%.
Turning to `Cc1csc(Nc2nccnc2C2CCCN2C(=O)C(C)C)n1` (stereo not given), the cytotoxicity at 70.5 h was -18.2%.
On to `Cc1occc1C(=O)N1C[C@@H]2CN(S(C)(=O)=O)CCO[C@@H]2C1`, for which the cytotoxicity at 70.5 h came out at 46.9%.
Then `Cc1noc(C(C)Nc2ccc3oc(C)nc3c2)n1` (stereo not given), with 11.9%.
With `COCC(=O)N1CCc2c(nnn2C)C1COCCN1CCCC1` (stereo not given), the cytotoxicity at 70.5 h is -2.45%.
Consider `CCC(C)N(Cc1cnc(NC(C)C)nc1)Cc1ccsc1` (stereo not given), for which the cytotoxicity at 70.5 h was -4.23%.
Turning to `COc1ccc(Cl)cc1C(=O)N1C[C@H](C(C)C)[C@@H](N)C1`, the cytotoxicity at 70.5 h stood at 3.26%.
For the compound `Cc1ccc(CNC(=O)Nc2nccs2)cn1`, the cytotoxicity at 70.5 h was -4.14%.
In the case of `CC(C)N1CCC2(CC1)CC(CC(N)=O)c1ccc(F)cc12` (stereo not given), the cytotoxicity at 70.5 h was -5.38%.
The figure for `CC1(c2ccccc2)CCC(=O)N(CCN2CCOC2=O)C1` (stereo not given) is -2.39%; for `CC(=O)OC1CN(c2nc3c(Cl)cccc3s2)C1` it is -9.84%; for `CS(=O)(=O)NCc1noc2c1CN(C(=O)C1CC1)CC2` it is -7.86%.
Then `CC(C)c1noc(CCNC(=O)N2CCSC(C(C)C)C2)n1` (stereo not given), with -3.03%; and `CNc1cc(N2CCCC2CNCc2csc(C(C)C)n2)ncn1` (stereo not given), with 28.6%; and `CCC(=O)N1CCc2c(O)nc(C3CCCCN3C(=O)C3CC3)nc2C1` (stereo not given), with -3.59%.
Regarding `OCc1ccc(CN(CCCn2ccnc2)Cc2cccnc2)o1`, the cytotoxicity at 70.5 h is -8.65%.
For the compound `COCC1CN(Cc2cc(C)on2)Cc2cn(CC3CCCC3)nc21` (stereo not given), the cytotoxicity at 70.5 h was -8.99%.
`O=C(NCC1CCC2(CC1)OCCO2)c1cccc(-n2cccn2)c1`: the cytotoxicity at 70.5 h was 19.6%.
The figure for `CN1CCC(c2cncc(N(C)C)n2)CC1` is -4.58%; for `O=C1COC2(CCN(Cc3cccnc3)CC2)CN1` it is 12.3%.
With `CC1(C)CN=C(N2CCN(CC3CCCCO3)CC2)S1` (stereo not given), the cytotoxicity at 70.5 h was found to be 0.00251%.
With `CC(C)(C)c1cn2nc(N3CCCCC3Cn3cncn3)sc2n1` (stereo not given), the cytotoxicity at 70.5 h was found to be 4.02%.
In the case of `Cc1nn(C)c(C)c1C(C)NCc1ccc(OC(C)C)cc1` (stereo not given), the cytotoxicity at 70.5 h is -1.94%.
Take `Cc1noc(CNC(=O)[C@@H](C)NC(=O)OC(C)(C)C)n1`: the cytotoxicity at 70.5 h was -2.55%.
Turning to `Cc1nc(COC(=O)c2cccc3c2OCCO3)cs1`, the cytotoxicity at 70.5 h is -11.2%.
As for `COc1cccc(COCC(=O)N2CCCCCC2)c1`, the cytotoxicity at 70.5 h was 17.5%.
As for `CC(C)n1ccnc1C1CCN(C(=O)c2ccc(SCCO)cc2)CC1`, the cytotoxicity at 70.5 h is -8.09%.
For the compound `O=C(NCc1cc(F)ccc1F)Nc1ccn(CC(F)F)n1`, the cytotoxicity at 70.5 h was determined as 0.0811%.
On to `c1cc(CN2CCC3(CCOCC3COCC3CC3)CC2)ccn1` (stereo not given), for which the cytotoxicity at 70.5 h is 0.537%.
Take `CCS(=O)(=O)N1CCCC2(CCCN2C(=O)c2cn(C)cn2)C1` (stereo not given): the cytotoxicity at 70.5 h was -8.17%.
In the case of `O=C(O)[C@H]1C[C@H](C(=O)NC2CC2)CN(Cc2ccc(-c3cc[nH]n3)s2)C1`, the cytotoxicity at 70.5 h is 11.9%.
In the case of `CC(=O)N1CCc2[nH]cnc2C12CCN(C(=O)CCn1cccn1)CC2`, the cytotoxicity at 70.5 h was 1.39%.
With `Cc1nnc(NCC2(c3ccc(Cl)cc3Cl)CCOCC2)c(C#N)c1C`, the cytotoxicity at 70.5 h came out at 13.2%.
As for `O=C(CN1CCCCC1)NCc1cccnc1-n1cnc2ccccc21`, the cytotoxicity at 70.5 h is -4.51%.
For `CC(=O)N(Cc1ncc(C(C)C)o1)C1CCN(Cc2cc(C)no2)C1` (stereo not given), the cytotoxicity at 70.5 h was -4.1%.
Then `CN(Cc1cc2cc(F)ccc2[nH]1)C(=O)C1CC(=O)N(C2CC2)C1` (stereo not given), with -2.65%; and `O=C1O[C@@H]2CN(c3ccncc3)C[C@@H]2N1CCCc1ccc(F)cc1`, with -6.08%.
In the case of `CN1CC=C(c2noc(CCC(=O)N3CCOCC3)n2)CC1`, the cytotoxicity at 70.5 h was -5.23%.
For `CC(=O)N1CCCC(c2cccc(-n3ccnc3)n2)C1` (stereo not given), the cytotoxicity at 70.5 h is -7.9%.
Turning to `CN1CCOCC2(CCN(Cc3ccc[nH]3)CC2)C1`, the cytotoxicity at 70.5 h turned out to be 30%.
Consider `O=C(CCNC(=O)c1ccc(Cl)cc1)NCc1nc(C2CC2)no1`, for which the cytotoxicity at 70.5 h came to 19.3%.
As for `CS(=O)(=O)c1ccc(CNC(=O)Nc2cn[nH]c2)cc1`, the cytotoxicity at 70.5 h was -12.4%.
Take `Cc1ccc(CN2CCC3(CC2)CCN(C(=O)c2cccn2C)C3)cc1`: the cytotoxicity at 70.5 h is -3.29%.
With `Cc1csc(CCCNC(C)CC(=O)Nc2ccc(F)cc2)n1` (stereo not given), the cytotoxicity at 70.5 h was found to be 5.43%.
As for `c1ccc(NC[C@@H]2CCC[C@@H]3CN(Cc4csnn4)C[C@@H]32)nc1`, the cytotoxicity at 70.5 h was -5.27%.
Then `Cc1ccn(-c2cccc(C(=O)N3CCCC(n4ccnc4C)C3)c2)n1` (stereo not given), with -11.3%.
Then `CCc1nc(CN(C(C)=O)C2CCN(CCc3cccs3)C2)no1` (stereo not given), with 13%.
Regarding `COc1cc(N2C[C@@H]3COC[C@@H](Cc4nnc(C)o4)[C@@H]3C2)ncn1`, the cytotoxicity at 70.5 h is -0.141%.
The figure for `COc1ccc(N(C(=O)c2ccccn2)C(C)C)cc1F` is -3.02%; for `C=C(C)COc1ccc(C(=O)N(C)C(C)c2ccon2)cc1` (stereo not given) it is -9.63%.
`CC(C)C1CN(C(=O)c2csc(CN(C)C)n2)CCC(=O)N1CC1CC1` (stereo not given): the cytotoxicity at 70.5 h is -10.8%.
Then `CN(C)c1ncccc1CNCc1cccc(O)c1`, with -12.2%; and `CCC(CC)NC(=O)c1ccc2nnc(C3CCN(S(C)(=O)=O)C3)n2c1` (stereo not given), with 6.79%.
Then `c1ccc(CNCC2Cn3nnc(-c4ccncc4)c3CO2)nc1` (stereo not given), with -4.04%.
For the compound `O=C(O)C1(Cc2ccc(F)cc2)CCCN(Cc2ccncc2)C1` (stereo not given), the cytotoxicity at 70.5 h was 4.55%.
Consider `COCc1nc(CNC2CCCC(C)(C)C2)no1` (stereo not given), for which the cytotoxicity at 70.5 h is -9.03%.
The figure for `CC(C)(C)CN1CC(COc2ccccc2)Oc2ccncc2S1(=O)=O` (stereo not given) is 10.8%; for `c1cc(COC[C@]23COC[C@H]2CN(CC2CCC2)C3)ccn1` it is -11.8%; for `Cn1c(=O)[nH]c(=O)c2c1nc1n2CC(c2ccc(Cl)cc2)O1` (stereo not given) it is 43%.
In the case of `CCOCC1CN(Cc2ccc(OC)cc2)Cc2nn(CC3CC3)cc21` (stereo not given), the cytotoxicity at 70.5 h was -5.83%.
Then `CC(=O)c1ccc(S(=O)(=O)N2CCC(c3n[nH]c(C)n3)CC2)cc1`, with 24.3%.
Take `CC(=O)NCC(=O)N1CCOC2(CCCN(c3cccnc3)C2)C1` (stereo not given): the cytotoxicity at 70.5 h is 14.8%.
Then `Cc1ccc(F)c(S(=O)(=O)N2CCCC2c2ccncc2)c1` (stereo not given), with -1.25%; and `Cc1nc(-c2ccccc2F)sc1C(=O)N1CCC(=O)CC1`, with -8.75%.
The figure for `CCCNC(=O)CN(C)C1CCN(c2ccc(Cl)cc2)CC1` is -6.78%.
For the compound `Cc1cccc(-c2ccc(C(=O)N3CCSCC3)c(=O)[nH]2)c1`, the cytotoxicity at 70.5 h was 0.198%.
As for `COc1c(CNCc2ccc(N(C)C)nc2)c(C(C)C)nn1C`, the cytotoxicity at 70.5 h was determined as 1.68%.
For the compound `O=C(Nc1ccccc1)C1CN(CC2CC2)CC12CCOCC2` (stereo not given), the cytotoxicity at 70.5 h is -17.6%.
The figure for `Cc1nc2ccccc2nc1CN1CCCC(Cn2cncn2)C1` (stereo not given) is -3.51%.
